Data reported in US6635651B2, “Inhibitors of thrombin induced platelet aggregation” (Parker Hughes Institute, priority 1999, dated 2003).

Test system: thrombin induced platelet aggregation
Experiment: Thrombin induced platelet aggregation (Chronolog aggregometer)
Format: cell-based
Settings: 0.1 U/ml thrombin
Protocol: Platelets treated with 100 μM WHI-P131 or the parent compound, WHI-P258 (negative control), were stimulated with 0.1 U/ml thrombin or 10 μg/ml collagen. WHI-P131 is described above, WHI-P258 is an unsubstituted quinazoline and structurally shown below.
Platelet aggregation with respect to control was monitored in a Chronolog Model 560 Dual Chamber Platelet Aggregometer. […] WHI-P258 had no effect on the thrombin response (FIG. 1C).
Platelets treated with varying concentrations of WHI-P131 or WHI-P258 (negative control) were stimulated with 0.1 U/ml thrombin. Platelet aggregation with respect to control was monitored in a Chronolog Model 560 Dual Chamber Platelet Aggregometer. […] The results are charted in FIG. 2.

SMILES | IC50 (Platelet, varying concentrations) | effect on thrombin induced platelet aggregation (100 μM)
COc1cc2ncnc(Nc3ccc(O)cc3)c2cc1OC [WHI-P131, 4-(4′-Hydroxyphenyl)-amino-6,7-dimethoxyquinazoline] | 1.5 µM | 
COc1cc2ncnc(Nc3ccccc3)c2cc1OC [WHI-P258, 4-(phenyl)-amino-6,7-dimethoxyquinazoline] |  | no effect
